According to patent US10131652B2, “Pyrimidinyloxy benzene derivatives as herbicides” (E. I. DU PONT DE NEMOURS AND COMPANY, priority 2014, dated 2018):
Like-named read-outs stand apart in the source and are kept apart here.

How the values were obtained:
Assay in all cases: Test B pre-/postemergence plant response
Format in all cases: in vivo
[1] = tested on: morningglory (Ipomoea spp.); conditions: Ipomoea, 240 h, read-out: Plant response rating, Morningglory; for pest or weed control at 125 g/ha: 125 g ai/ha; for pest or weed control at 500 g/ha: 500 g ai/ha; for pest or weed control at 1000 g/ha: 1000 g ai/ha
Method in brief: (§1)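 Ratings reflect visual injury versus untreated controls, from 0 for no effect to 100 for complete control, assessed roughly 10 days after treatment. Formulation: non-phytotoxic solvent mix with surfactant; pre- and postemergence sprays on plants grown in loam soil and sand.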

[2] = tested on: large (Lg) crabgrass (Digitaria sanguinalis); conditions: Digitaria sanguinalis, 240 h, read-out: Plant response rating, Crabgrass, Large; for pest or weed control at 125 g/ha: 125 g ai/ha; for pest or weed control at 500 g/ha: 500 g ai/ha; for pest or weed control at 1000 g/ha: 1000 g ai/ha
Method in brief: as §1

[3] = tested on: velvetleaf (Abutilon theophrasti); conditions: Abutilon theophrasti, 240 h, read-out: Plant response rating, Velvetleaf; for pest or weed control at 125 g/ha: 125 g ai/ha; for pest or weed control at 500 g/ha: 500 g ai/ha; for pest or weed control at 1000 g/ha: 1000 g ai/ha
Method in brief: as §1

[4] = post-emergence, postemergence, 0 to 100 scale, 0 no effect, 100 complete control
[5] = post-emergence, Postemergence, 0 to 100 scale (0 no effect, 100 complete control)
[6] = pre-emergence, Preemergence, 0 to 100 scale where 0 is no effect and 100 is complete control
[7] = pre-emergence, Preemergence, 0 to 100 scale (0 no effect, 100 complete control)

Row | SMILES | pest or weed control at 125 g/ha [1, 4] | pest or weed control at 500 g/ha [1, 5] | pest or weed control at 125 g/ha [1, 6] | pest or weed control at 500 g/ha [1, 7] | pest or weed control at 125 g/ha [2, 4] | pest or weed control at 500 g/ha [2, 5] | pest or weed control at 125 g/ha [2, 6] | pest or weed control at 500 g/ha [2, 7] | pest or weed control at 125 g/ha [3, 4] | pest or weed control at 500 g/ha [3, 5] | pest or weed control at 125 g/ha [3, 6] | pest or weed control at 500 g/ha [3, 7] | pest or weed control at 500 g/ha [1, 6] | pest or weed control at 500 g/ha [2, 6] | pest or weed control at 500 g/ha [3, 6] | also measured
1 | FC(F)(F)c1nccc(-c2ccccc2Oc2ncc(Br)cn2)n1 [Compound 21, 4-[2-[(5-bromo-2-pyrimidinyl)oxy]phenyl]-2-(trifluoromethyl)pyrimidine] | 20% | 90% | 0% | 0% | 0% | 30% | 60% | 100% | 20% | 40% | 0% | 20% |  |  |  | 
2 | Cc1ccc(Oc2ncc(Cl)cn2)c(-c2ccc(C(F)(F)F)nc2)c1 [Compound 22, 5-chloro-2-[4-methyl-2-[6-(trifluoromethyl)-3-pyridinyl]phenoxy]pyrimidine] | 0% | 10% | 0% | 0% | 0% | 10% | 0% | 0% | 50% | 60% | 0% | 0% |  |  |  | 
3 | Clc1ccc(-c2c(Cl)cccc2Oc2ncc(Cl)cn2)nc1 [Compound 23, 5-chloro-2-[3-chloro-2-(5-chloro-2-pyridinyl)phenoxy]pyrimidine] | 20% | 40% | 0% | 0% | 10% | 50% | 40% | 80% | 40% | 70% | 10% | 50% |  |  |  | pest or weed control at 1000 g/ha [1, 5]: 70%; pest or weed control at 1000 g/ha [1, 7]: 0%; pest or weed control at 1000 g/ha [2, 5]: 60%; pest or weed control at 1000 g/ha [2, 7]: 100%; pest or weed control at 1000 g/ha [3, 5]: 70%; pest or weed control at 1000 g/ha [3, 7]: 80%
4 | Cc1ccc(Oc2ncc(Cl)cn2)c(-c2ccnc(C(F)(F)F)c2)c1 [Compound 24, 5-chloro-2-[4-methyl-2-[2-(trifluoromethyl)-4-pyridinyl]phenoxy]pyrimidine] | 50% | 100% | 0% | 0% | 80% | 90% | 100% | 100% | 40% | 70% | 0% | 0% |  |  |  | 
5 | FC(F)(F)c1ccnc(-c2ccccc2Oc2ncc(Cl)cn2)c1 [Compound 25, 5-chloro-2-[2-[4-(trifluoromethyl)-2-pyridinyl]phenoxy]pyrimidine] | 10% | 70% | 0% |  | 10% | 50% | 50% |  | 20% | 80% | 10% |  | 10% | 100% | 100% | 
6 | FC(F)(F)c1ccc(-c2ccccc2Oc2ncc(Cl)cn2)nc1 [Compound 27, 5-chloro-2-[2-[5-(trifluoromethyl)-2-pyridinyl]phenoxy]pyrimidine] | 10% | 50% | 0% |  | 20% | 90% | 80% |  | 70% | 100% | 20% |  | 0% | 100% | 60% | 
7 | FCc1cc(-c2ccccc2Oc2ncc(Cl)cn2)no1 [Compound 32, 5-chloro-2-[2-[5-(fluoromethyl)-3-isoxazolyl]phenoxy]pyrimidine] | 70% | 90% | 0% |  | 60% | 90% | 100% |  | 90% | 100% | 90% |  | 30% | 100% | 100% | 
8 | FC(F)(F)Oc1ccc(-c2ccccc2Oc2ncc(Cl)cn2)cc1 [Compound 42, 5-chloro-2-[[4′-(trifluoromethoxy)[1,1′-biphenyl]-2-yl]oxy]pyrimidine] | 20% | 60% | 0% |  | 30% | 50% | 50% |  | 100% | 100% | 50% |  | 0% | 90% | 70% | 
9 | FC(F)(F)c1cc(-c2ccccc2Oc2ncc(Cl)cn2)on1 [Compound 63, 5-chloro-2-[2-[3-(trifluoromethyl)-5-isoxazolyl]phenoxy]pyrimidine] | 100% | 100% | 30% |  | 80% | 90% | 100% |  | 100% | 100% | 70% |  | 60% | 100% | 90% | 
